We go through 44 compounds from the Deep4Chem optical property database.

This series in a line: solvent given as SMILES.

For the compound `CCCCCCOC(=O)/C=C/C1=CC2=C(c3c(C)cc(C)cc3C)c3cc(/C=C/C(=O)OCCCCCC)cn3[B-](F)(F)[N+]2=C1`, for the setting “in ClCCl”, the absorption maximum is reported as 579 nm.

Turning to `F[B-]1(F)n2c(cc3sc4ccccc4c32)C(c2ccc(I)cc2)=C2C=c3sc4ccccc4c3=[N+]21`, the absorption maximum (in ClC(Cl)Cl) came to 658 nm.

For the setting “in O”, `O=C([O-])c1cc(N2C(=O)C=CC2=O)ccc1-c1c2cc(F)c(=O)cc-2oc2cc([O-])c(F)cc12` came in with an absorption maximum of 493 nm.

Under “in Cc1ccccc1”, `Cc1nnc(-c2cc(-c3nnc(C)o3)c(-n3c4ccccc4c4ccccc43)cc2-n2c3ccccc3c3ccccc32)o1` came in with an absorption maximum of 359 nm.

In the case of `Nc1nc2ccccc2[n+]([O-])n1`, the absorption maximum is, setting by setting: (in CC#N) 407 nm; (in O) 415 nm.

In turn, `COc1ccc(-c2cc3oc(=O)cc(C)c3cc2-c2ccc(OC)c(OC)c2)cc1OC` had an absorption maximum (in C1CCOC1) of 346 nm.

For `CN(C)c1ccc(C(=O)Nc2ccc(F)cc2)cc1`, the absorption maximum by setting is: (in C1CCCCC1) 307 nm; (in C1CCOC1) 311 nm; (in CC#N) 314 nm; (in CCOCC) 307 nm.

`Cn1c(/C=C/c2ccc(/C=C/c3nc4ccccc4[nH]3)cc2)[n+](C)c2ccccc21` returned an absorption maximum (in C1CCOC1) of 363 nm; an absorption maximum (in CC#N) of 377 nm; an absorption maximum (in CC(C)=O) of 386 nm; an absorption maximum (in CN(C)C=O) of 389 nm; an absorption maximum (in CO) of 391 nm; an absorption maximum (in CS(C)=O) of 392 nm. For the same compound, the absorption maximum (in O) is on record as 376 nm.

Regarding `Cc1ccc(C(=O)NC(C)(C)C)c2c1ccc1c3ccccc3c3ccccc3c12`, the absorption maximum (in ClCCl) worked out at 335 nm.

The compound `Cc1ccc(C#Cc2ccc3nc4ccc(C#Cc5ccc(C)cc5)cn4c(=O)c3c2)cc1` displayed an absorption maximum (in ClCCl) of 385 nm.

`c1ccc(N(c2ccccc2)c2ccc(-c3ccc(-c4cc(-c5ccccn5)nc(-c5ccccn5)c4)cc3)cc2)cc1` showed an absorption maximum (in ClCCl) of 284 nm.

The compound `CCOC(=O)CCCCCn1c2ccc(N)cc2c(=O)c2cc3c(cc21)c(=O)c1cc(N)ccc1n3CCCCCC(=O)OCC` gave an absorption maximum (in ClCCl) of 574 nm.

As for `Cc1ccc(/C=C/c2nc3ccccc3s2)cc1`, the absorption maximum (in C1CCCCC1) turned out to be 345 nm and the absorption maximum (in CO) is 345 nm.

For the setting “in ClCCl”, `CCc1cccc(CC)c1-c1c2ccccc2c(C#Cc2ccccc2)c2cc3ccccc3cc12` came in with an absorption maximum of 523 nm.

Consider `CCCCN1C(=S)c2cccc3c(OC)ccc(c23)C1=S`, for which the absorption maximum amounted to 476 nm (in CC#N), 483 nm (in CS(C)=O) and 468 nm (in Cc1ccccc1).

As to `CCCCC(CC)CO[N+](=O)[O-]` (configuration not stated), the absorption maximum by setting is: (in CO) 218 nm; (in O) 198 nm.

Take `CCCCCCn1c(=O)c2c3nc4cc5sc6c(nc5cc4sc3c3c(=O)n(CCCCCC)c(=O)c3c2c1=O)c1c(=O)n(CCCCCC)c(=O)c1c1c(=O)n(CCCCCC)c(=O)c61`: the absorption maximum (in ClCCl) is given as 633 nm.

Take `CCOC(=O)CN1C(=O)C2=C(c3ccc(N4CCCCC4)cc3)N(CC(=O)OCC)C(=O)C2=C1c1ccc(C#N)cc1`: the absorption maximum (in CC#N) came out at 524 nm, the absorption maximum (in CS(C)=O) was 541 nm and the absorption maximum (in Cc1ccccc1) is 527 nm.

Consider `COc1ccc(-c2pc3ccccc3s2)cc1` (configuration not stated), for which the absorption maximum (in CC#N) worked out at 347 nm.

Take `FC(F)(F)C(F)(F)C(F)(F)c1nc2c(-c3ccsc3)cc3c4cc(-c5ccsc5)c5nc(C(F)(F)C(F)(F)C(F)(F)F)nc6c(-c7ccsc7)cc(c7cc(-c8ccsc8)c(n1)c2c37)c4c56`: the absorption maximum (in C1CCOC1) came to 538 nm.

`CCCCCCCCCCn1c(-c2cc(-c3nc4ccccc4n3CCCCCCCCCC)cc(-c3nc4ccccc4n3CCCCCCCCCC)c2)nc2ccccc21`: the absorption maximum (in ClCCl) is 299.5 nm.

As to `F[B-]1(F)n2c(c3cccc4cccc2c43)=Nc2cccc[n+]21`, the absorption maximum by setting is: (in C1CCOC1) 468 nm; (in CC#N) 460 nm; (in CCCCCC) 473 nm; (in Cc1ccccc1) 472 nm; (in ClCCl) 438 nm.

Consider `CC(C)(C)c1cc(-c2c3cc(c(-c4cc(C(C)(C)C)cc(C(C)(C)C)c4)c4ccc([nH]4)c(-c4ccc([N+](=O)[O-])cc4)c4nc(c(-c5ccc([N+](=O)[O-])cc5)c5ccc2[nH]5)C=C4)N=C3)cc(C(C)(C)C)c1`, for which the absorption maximum (in ClCCl) was found to be 726 nm.

For the compound `C(=C\c1cnccn1)/c1ccc(N(c2ccccc2)c2ccc(/C=C/c3cnccn3)cc2)cc1`, the absorption maximum (in ClCCl) is listed as 420 nm.

On to `CC1(C)c2ccccc2N(c2cc[n+]3c(c2)-c2ccccc2O[B-]3(F)F)c2ccccc21`, for which the absorption maximum (in Cc1ccccc1) amounted to 358 nm.

For `CCCCCCCCCCn1cc(C2=C(c3cn(CCCCCCCCCC)c4ccccc34)C(=O)N(C)C2=O)c2ccccc21`, the absorption maximum (in C1CCCCC1) was 462 nm; the absorption maximum (in C1CCOC1) is on record as 471 nm; the absorption maximum (in CC#N) was 470 nm; the absorption maximum (in CC(C)OC(C)C) stood at 470 nm; the absorption maximum (in CCCCOCCCC) came to 469 nm; the absorption maximum (in CCO) is listed as 480 nm. Further, the absorption maximum (in CCOC(C)=O) came to 472 nm, the absorption maximum (in CN(C)C=O) is 474 nm, the absorption maximum (in Cc1ccccc1) worked out at 472 nm and the absorption maximum (in ClCCl) was 477 nm.

For the compound `COc1ccc2cc(-c3ccc(C)cc3)c(=O)oc2c1`, the absorption maximum is reported as 342 nm (in C1CCOC1), 338 nm (in CCCCCC), 342 nm (in CCO) and 345 nm (in CS(C)=O).

For the compound `CCN(CC)c1ccc(-c2nc(Oc3ccc(-c4nc5cc([N+](=O)[O-])ccc5[nH]4)cc3)nc(Oc3ccc(-c4nc5cc([N+](=O)[O-])ccc5[nH]4)cc3)n2)cc1`, the absorption maximum (in CN(C)C=O) is on record as 383 nm.

The compound `CCCCCCCCCCCCCCCCOC(=O)c1ccc(N(c2ccccc2)c2ccccc2)cc1` yielded an absorption maximum (in C1CCCCC1) of 334 nm; an absorption maximum (in C1CCOC1) of 334 nm; an absorption maximum (in CC#N) of 332 nm; an absorption maximum (in CCOC(C)=O) of 334 nm; an absorption maximum (in ClCCCl) of 336 nm; an absorption maximum (in c1ccccc1) of 334 nm.

Turning to `O=C1CCCC2=C1CC1=C(CCCC1=O)N2NC(=O)c1ccccc1`, the absorption maximum (in C1CCOC1) worked out at 366 nm; the absorption maximum (in CC#N) was 368 nm; the absorption maximum (in CC(C)=O) was found to be 366 nm; the absorption maximum (in CCCCCO) stood at 376 nm; the absorption maximum (in CO) turned out to be 374 nm; the absorption maximum (in ClC(Cl)Cl) is given as 370 nm. The compound further showed an absorption maximum (in ClCCl) of 364 nm.

Compound `CC(C)(C)c1cc2ccc3c(N(c4ccc(F)cc4)c4ccc(F)cc4)cc(N(c4ccc(F)cc4)c4ccc(F)cc4)c4ccc(c1)c2c34` yielded an absorption maximum (in ClCCl) of 414 nm.

`COc1cc(OC)c2c(c1)C(=O)c1ccc(OC)cc1-2`: the absorption maximum by setting is: (in C1CCCCC1) 422 nm; (in CC#N) 441 nm; (in CCO) 442 nm.

For `Fc1cc(F)c2cc3cccc[n+]3cc2c1`, where the note is “in O”, the absorption maximum is recorded as 407 nm.

Take `CC1=[N+]2C(=C(c3ccccc3C)c3ccc(C)n3[B-]2(F)F)C=C1c1cc2n(c1)[B-](F)(F)[N+]1=CC=CC1=C2c1c(C)cc(C)cc1C`: the absorption maximum is 595 nm (in C1CCCCC1) and 599 nm (in CCOC(C)=O).

Compound `COc1nc(Nc2ccc3c4cccc5cccc(c6cccc2c63)c54)nc(OC)n1` yielded an absorption maximum (in C1COCCO1) of 443 nm, an absorption maximum (in CC#N) of 444 nm, an absorption maximum (in CCCCOCCCC) of 442 nm and an absorption maximum (in CCOC(C)=O) of 441 nm.

In the case of `c1ccc2c(-n3c4ccccc4c4ccccc43)cccc2c1`, the absorption maximum runs as follows: (in C1CCCCC1) 321 nm; (in C1CCOC1) 323 nm; (in CC#N) 322 nm; (in CCO) 325 nm; (in CCOC(C)=O) 323 nm; (in CCOCC) 322 nm. Also, the absorption maximum (in CO) is 323 nm, the absorption maximum (in Cc1ccccc1) is on record as 321 nm and the absorption maximum (in ClC(Cl)Cl) is given as 324 nm.

For `N#C/C(=C\c1ccc(C#N)cc1)c1nc(-c2ccc(Cl)cc2)c(-c2ccccc2)s1`, the absorption maximum (in CC#N) was found to be 377 nm.

`Cc1cccc(C)c1-c1cc2c(C)c3c4cc5nc6cc7c(cc6nc5cc4c3c(C)c2cc1-c1c(C)cccc1C)c1c(C)c2cc(-c3c(C)cccc3C)c(-c3c(C)cccc3C)cc2c(C)c71` had an absorption maximum (in ClC(Cl)Cl) of 503 nm.

`Cc1nc2ccc(/C=C/c3ccc(N(C)C)cc3)cc2nc1-c1ccccc1` showed an absorption maximum (in C1COCCO1) of 403 nm, an absorption maximum (in CC#N) of 400 nm and an absorption maximum (in ClCCl) of 408 nm.

As to `Cc1cc2ccccc2c2[nH]c3ccccc3c12`, for the setting “in ClCCl”, the absorption maximum was found to be 300 nm.

As for `N#C/C(=C\c1cc(/C=C(\C#N)c2ccc(C(F)(F)F)cc2)c(-c2ccc(N(c3ccccc3)c3ccccc3)cc2)cc1-c1ccc(N(c2ccccc2)c2ccccc2)cc1)c1ccc(C(F)(F)F)cc1`, the absorption maximum (in C1CCCCC1) came out at 405 nm; the absorption maximum (in C1CCOC1) was 402 nm; the absorption maximum (in CCCCCC) was 402 nm; the absorption maximum (in CCOC(C)=O) is recorded as 397 nm; the absorption maximum (in Cc1ccccc1) is listed as 408 nm; the absorption maximum (in ClC(Cl)Cl) was 407 nm. The same compound had an absorption maximum (in ClCCl) of 405 nm.

In the case of `CCN(CC)c1cc2oc3cc(O)c(F)cc3c(=O)c2cc1F`, the absorption maximum (in CCO) is given as 379 nm.

`N#Cc1ccc(N)cc1`: the absorption maximum by setting is: (in C1CCCCC1) 283 nm; (in CC#N) 272.85 nm; (in CCCCCC) 260.99 nm; (in CCO) 276 nm; (in O) 283 nm; (in OCC(F)(F)F) 264 nm.

On to `CCc1ccc(-c2nc(-c3ccc(-n4c5ccccc5c5ccccc54)cc3)cc(-c3ccc(-n4c5ccccc5c5ccccc54)cc3)n2)cc1`, for which the absorption maximum is, setting by setting: (in C1CCOC1) 343 nm; (in CN(C)C=O) 344 nm; (in Cc1ccccc1) 354 nm; (in ClC(Cl)Cl) 344 nm.
